One test has as its system JAK1/JAK2 pathway. Kind of test: Western blot p-STAT1/STAT1 in IFN-γ-stimulated HT-29 cells. The class given is cell-based. The conditions noted are these: IFN-γ 100 ng/mL. How it is done: HT-29 cells were digested by trypsin and suspended in Dulbecco's Modified Eagle Medium (DMEM) and counted. The tested compounds were added into the 6 well plates (400 000/per well). After 2 hours, IFN-γ (100 ng/mL) was added to stimulate cells for 30 minutes. The cells were collected and lysed with protein lysate. The protein was quantitatively tested by BCA kit. Finally, p-STAT1/STAT1 and internal reference protein β-actin were detected by Western blot.
Background: In western blotting, separated proteins are transferred to a membrane and probed.

For test [1], the system named is IFNα induced TYK2/JAK1 mediated STAT activation. Kind of test: Luciferase assay in L929 ISRE cells stimulated with IFN-α. The class given is cell-based. Conditions: Mus musculus, IFN-α 100 ng/mL; for inhibition at 0.05 µM: 50 nM compound, read-out: Inhibitory activity % (50 nM); for inhibition at 0.2 µM: 200 nM compound, read-out: Inhibitory activity % (200 nM); for inhibition at 1 µM: 1000 nM compound, read-out: Inhibitory activity % (1000 nM). As for the experimental part:
• 1. L929 ISRE cells (5000 cells/well) were seeded on 96-well plates and incubated overnight at room temperature-; • 2. The cells were pretreated by adding different concentrations (10 nM, 50 nM, 100 nM, 200 nM or 1000 nM) of the test compounds for 2 hours; • 3. Added IFN-α (100 ng/mL) to stimulate cells for 6 hours; • 4. Removed the upper medium, add PBS (100 μL) and washed, then removed PBS; • 5. Added PLB lysis solution (50 μL) to each well, shook the well for 15 minutes; • 6. Transferred PLB lysis solution (30 μL) to a new 96-well whiteboard, added LAR II reagent (LAR II), then quickly read the 450 nm OD value with a plate washer; • 7. Added Stop & Glo reagent (30 μL), then read the 450 nm OD value using the plate washer. • 8. The final result was the OD value in step 6/OD value in step 7.

The next test concerns TYK2/JAK2 pathway. Kind of test: Western blot p-STAT4/STAT4 in IL-12-stimulated mouse spleen cells. The class given is cell-based, mice. Conditions: IL-12 50 ng/mL. As for the experimental part: The spleen of mice was isolated and ground into single cells with bent tweezers. The single cells of the spleen were centrifuged for 5 minutes (400 g), and erythrocytes were lysed with Ammonium-Chloride-Potassium (ACK) solution and neutralized in 1640 medium, centrifuged for 5 minutes (400 g), and then re-suspended in 1640 medium. The spleen single cell suspension was counted, transferred to and incubated on a 6-well plate (5 million/well). The compounds to be tested were added. After 2 hours, IL-12 (50 ng/mL) was added to stimulate the cells for 1 h. The cells were collected and lysed with protein lysate. The protein was quantitatively tested by BCA kit. Finally, p-STAT4/STAT4 and internal reference protein […] were detected by Western blot.

The subject of a further test is JAK2/JAK2 pathway. Nature of the test: Western blot p-STAT3/STAT3 in TPO-stimulated HEL cells. The class given is cell-based. The conditions noted are these: TPO 100 ng/mL. How it is done: HEL cells were digested by trypsin, re-suspended in 1640 medium and counted. The compounds to be measured were added to 6 well plates (1 million/per well) for 2 hours, and then thrombopoietin (TPO)(final concentration: 100 ng/mL) was added to stimulate cells for 30 minutes. The cells were collected and lysed with protein lysate. The protein was quantitatively tested by bicinchoninic acid (BCA) kit. Finally, p-STAT3/STAT3 and internal reference protein β-actin were detected by Western blot.

`COc1c(Nc2cc(NC(=O)C3CC3)ncc2C(N)=O)cccc1-c1cc(P(=O)(C2CC2)C2CC2)n(C)n1` [Compound A2, 6-(cyclopropanecarboxamido)-4-((3-(5-(dicyclopropylphosphoryl)-1-methyl-1H-pyrazol-3-yl)-2-methoxyphenyl)amino)nicotinamide]: the “effect on downstream STAT1 phosphorylation induced by IFN-γ (JAK1/JAK2 pathway)” value (“effect … (JAK1/JAK2 pathway)” below) with JAK1/JAK2 pathway was “inhibited JAK1/JAK2 pathway in a concentration-dependent manner”. In test [1], the inhibition at 0.05 µM was 26%, the inhibition at 0.2 µM came out at 57% and the inhibition at 1 µM turned out to be 94%.

`COc1c(Nc2cc(NC(=O)C3CC3)nnc2C(N)=O)cc(F)cc1-c1cc(P(=O)(C2CC2)C2CC2)n(C)n1` [Compound A8]: the “effect … (JAK1/JAK2 pathway)” value with JAK1/JAK2 pathway is “inhibited JAK1/JAK2 pathway in a concentration-dependent manner”. Moreover, in the test with TYK2/JAK2 pathway, the “inhibition of downstream STAT4 phosphorylation induced by IL-12 (TYK2/JAK2 pathway)” value (from here on “inhibition … (TYK2/JAK2 pathway)”) was “effectively inhibited the downstream STAT4 phosphorylation induced by IL-12”. For the same compound, in test [1], the inhibition at 0.05 µM came out at 84%, the inhibition at 0.2 µM was 88% and the inhibition at 1 µM was found to be 96%.

Take `COc1c(Nc2cc(Nc3ccc(F)cn3)nnc2C(N)=O)cccc1-c1cc(P(=O)(C2CC2)C2CC2)n(C)n1` [Compound A9]: the “effect … (JAK1/JAK2 pathway)” value in the test on JAK1/JAK2 pathway is “inhibited JAK1/JAK2 pathway in a concentration-dependent manner”. In the test on TYK2/JAK2 pathway, the “inhibition … (TYK2/JAK2 pathway)” value is “effectively inhibited the downstream STAT4 phosphorylation induced by IL-12”.

On to `COc1c(Nc2cc(Nc3cc(C)ccn3)nnc2C(N)=O)cccc1-c1cc(P(=O)(C2CC2)C2CC2)n(C)n1` [Compound A12], for which the “effect on TPO-induced downstream STAT3 phosphorylation (JAK2/JAK2 pathway)” value (shortened to “effect … (JAK2/JAK2 pathway)”) with JAK2/JAK2 pathway was “had no effect on TPO-induced downstream STAT3 phosphorylation”. Besides, the “effect … (JAK1/JAK2 pathway)” value in the test on JAK1/JAK2 pathway was “inhibited JAK1/JAK2 pathway in a concentration-dependent manner”. In the test with TYK2/JAK2 pathway, the “inhibition … (TYK2/JAK2 pathway)” value is “effectively inhibited the downstream STAT4 phosphorylation induced by IL-12”. Besides, in test [1], the inhibition at 0.05 µM was 25%, the inhibition at 0.2 µM stood at 33% and the inhibition at 1 µM came to 93%.

Take `COc1c(Nc2cc(Nc3ccn(C)n3)nnc2C(N)=O)cccc1-c1cc(P(=O)(C2CC2)C2CC2)n(C)n1` [Compound A17]: in the test on JAK2/JAK2 pathway, the “effect … (JAK2/JAK2 pathway)” value is “had no effect on TPO-induced downstream STAT3 phosphorylation”. Also, the “effect … (JAK1/JAK2 pathway)” value in the test on JAK1/JAK2 pathway is “inhibited JAK1/JAK2 pathway in a concentration-dependent manner”. Moreover, the “inhibition … (TYK2/JAK2 pathway)” value with TYK2/JAK2 pathway is given as “effectively inhibited the downstream STAT4 phosphorylation induced by IL-12”. Besides, in test [1], the inhibition at 0.2 µM is 42% and the inhibition at 1 µM was found to be 82%.

`COc1c(Nc2cc(Nc3cc(C)ccn3)nnc2C(N)=O)cccc1-c1cc(P(C)(C)=O)n(C)n1` [Compound A29]: in the test on JAK2/JAK2 pathway, the “effect … (JAK2/JAK2 pathway)” value is given as “had no effect on TPO-induced downstream STAT3 phosphorylation”. Moreover, the “effect … (JAK1/JAK2 pathway)” value in the test with JAK1/JAK2 pathway is “inhibited JAK1/JAK2 pathway in a concentration-dependent manner”. For the same compound, in the test with TYK2/JAK2 pathway, the “inhibition … (TYK2/JAK2 pathway)” value is “effectively inhibited the downstream STAT4 phosphorylation induced by IL-12”. The inhibition at 1 µM in test [1] was 93%.

As to `COc1c(-c2cc(P(C)(C)=O)n(C)n2)ccnc1Nc1cc(Nc2cc(C)ccn2)nnc1C(N)=O` [Compound A55, 4-((4-(5-(dimethylphosphoryl)-1-methyl-1H-pyrazol-3-yl)-3-methoxypyridin-2-yl)amino)-6-((4-methylpyridin-2-yl)amino)pyridazine-3-carboxamide], in test [1], the inhibition at 0.05 µM is 34%, the inhibition at 0.2 µM stood at 63% and the inhibition at 1 µM is 90%.

`[2H]C([2H])([2H])n1nc(-c2cc(F)cc(Nc3cc(Nc4cc(C)ccn4)nnc3C(N)=O)c2OC)cc1P(C)(C)=O` [Compound A56]: in test [1], the inhibition at 0.05 µM was found to be 31%, the inhibition at 0.2 µM worked out at 70% and the inhibition at 1 µM stood at 95%.

On to `COc1c(Nc2cc(Nc3cc(C)ccn3)nnc2C(N)=O)cncc1-c1cc(P(C)(C)=O)n(C2CC2)n1` [Compound A58], for which the inhibition at 1 µM in test [1] was 86%.

For `[2H]C([2H])([2H])n1nc(-c2cccc(Nc3cc(Nc4cnccn4)nnc3C(N)=O)c2OC)cc1P(=O)(C1CC1)C1CC1` [Compound A59], the inhibition at 1 µM in test [1] is 86%.

In the case of `COc1c(-c2cc(P(C)(C)=O)n(C3CC3)n2)ccnc1Nc1cc(Nc2cc(C)ccn2)nnc1C(N)=O` [Compound A60], the inhibition at 1 µM in test [1] is 66%.

As to `COc1c(Nc2cc(NC(=O)C3CC3)ncc2C(N)=O)cccc1-c1ccc(P(C)(C)=O)cc1` [Compound A61, 6-(cyclopropanecarboxamido)-4-((4′-(dimethylphosphoryl)-2-methoxy-[1,1′-biphenyl]-3-yl)amino)nicotinamide], in test [1], the inhibition at 0.05 µM turned out to be 8%, the inhibition at 0.2 µM worked out at 23% and the inhibition at 1 µM was 59%.

Turning to `COc1c(Nc2cc(NC(=O)C3CC3)ncc2C(N)=O)cccc1-c1ccc(P(C)(C)=O)nc1` [Compound A62], in test [1], the inhibition at 0.05 µM came to 3%, the inhibition at 0.2 µM was 5% and the inhibition at 1 µM came to 56%.

As to `COc1c(Nc2cc(NC(=O)C3CC3)ncc2C(N)=O)cccc1-c1cnc(P(C)(C)=O)cn1` [Compound A63, 6-(cyclopropanecarboxamido)-4-((3-(5-(dimethylphosphoryl)pyrazin-2-yl)-2-methoxyphenyl)amino)nicotinamide], in test [1], the inhibition at 0.05 µM stood at 33%, the inhibition at 0.2 µM stood at 43% and the inhibition at 1 µM was found to be 75%.

Consider `COc1cccnc1Nc1cc(Nc2cccc(-c3cc(P(=O)(C4CC4)C4CC4)n(C)n3)c2OC)c(C(N)=O)nn1` [Compound A65], for which, in test [1], the inhibition at 0.05 µM was 36%, the inhibition at 0.2 µM came out at 43% and the inhibition at 1 µM came to 93%.

As to `COc1ccnc(Nc2cc(Nc3cccc(-c4cc(P(=O)(C5CC5)C5CC5)n(C)n4)c3OC)c(C(N)=O)nn2)c1` [Compound A66], in test [1], the inhibition at 0.05 µM is 59%, the inhibition at 0.2 µM turned out to be 82% and the inhibition at 1 µM came out at 96%.

On to `COc1cccc(Nc2cc(Nc3cccc(-c4cc(P(=O)(C5CC5)C5CC5)n(C)n4)c3OC)c(C(N)=O)nn2)n1` [Compound A67], for which, in test [1], the inhibition at 0.05 µM stood at 88%, the inhibition at 0.2 µM amounted to 95% and the inhibition at 1 µM was 95%.

As to `COc1cc(P(=O)(C2CC2)C2CC2)ccc1Nc1cc(Nc2cc(C)ccn2)nnc1C(N)=O` [Compound B1, 4-((4-(dicyclopropylphosphoryl)-2-methoxyphenyl)amino)-6-((4-methylpyridin-2-yl)amino)pyridazine-3-carboxamide], the inhibition at 1 µM in test [1] was found to be 0%.

Consider `CCP(=O)(CC)c1ccc(Nc2cc(NC(=O)C3CC3)ncc2C(N)=O)c(OC)c1` [Compound B3, 6-(cyclopropanecarboxamido)-4-((4-(diethylphosphoryl)-2-methoxyphenyl)amino)nicotinamide], for which the inhibition at 1 µM in test [1] was 19%.

As to `COc1cc(P(=O)(C2CC2)C2CC2)ccc1Nc1cc(Nc2ccccn2)nnc1C(N)=O` [Compound B4], in test [1], the inhibition at 1 µM stood at 8%.

For the compound `COc1cc(P(=O)(C2CC2)C2CC2)ccc1Nc1cc(NC(=O)C2CC2)nnc1C(N)=O` [Compound B5], the inhibition at 1 µM in test [1] was 0%.

Regarding `COc1cc(P(=O)(C2CC2)C2CC2)ccc1Nc1cc(Nc2ccn(C)n2)nnc1C(N)=O` [Compound B7], the inhibition at 1 µM in test [1] came out at 0%.

As for `N#CC[C@H](C1CCCC1)n1cc(-c2ncnc3[nH]ccc23)cn1` [Ruxolitinib, reference compound], in the test with JAK2/JAK2 pathway, the “effect … (JAK2/JAK2 pathway)” value is reported as “can inhibit the JAK2/JAK2 pathway”. Further, the “effect … (JAK1/JAK2 pathway)” value with JAK1/JAK2 pathway is “inhibited JAK1/JAK2 pathway in a concentration-dependent manner”.

Source of the values: patent US20260001898A1, “Heteroaryl compounds as inhibitors of TYK2/JAK1, composition and application thereof” (Accro Bioscience (HK) Limited, priority 2022, published 2026).
